Data on 5 molecules can be found in patent publication US20250368649A1, “TETRAHYDROPYRIDOPYRIMIDINE PAN-KRAS INHIBITORS” (Mirati Therapeutics, Inc., priority 2022, published 2025).

In one assay the target is KRas G12V (Homo sapiens, UniProt P01116, G12V). The assay is described as follows: biochemical. As to conditions: Binding to KRas (IC50 nM) G12V, TR-FRET displacement, KRas G12V.
The next assay deals with KRas G12R (Homo sapiens, UniProt P01116, G12R). The assay is described as follows: biochemical. As to conditions: Binding to KRas (IC50 nM) G12R, TR-FRET displacement, KRas G12R.
Chain of KRas G12R (P01116 1-169 isoform P01116-2 G12R): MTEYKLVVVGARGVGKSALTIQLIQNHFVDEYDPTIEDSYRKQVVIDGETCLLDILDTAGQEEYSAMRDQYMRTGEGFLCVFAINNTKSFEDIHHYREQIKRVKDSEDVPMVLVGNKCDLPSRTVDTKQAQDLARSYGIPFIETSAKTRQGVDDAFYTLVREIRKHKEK
The subject of the next assay is H727 cells. The assay is described as follows: Inhibition of KRas-mediated phosphorylation of ERK (Cisbio HTRF pERK), H727 cells. Format: cell-based. As to conditions: Homo sapiens; for IC50: NCI-H727, 3 h, 3 hr compound incubation, Cisbio pERK HTRF; for inhibition at 0.1 µM: NCI-H727, single point at 100 nM, 3 hrs compound incubation.
In another assay the test system is ASPC1 cells. The assay is described as follows: Inhibition of KRas-mediated phosphorylation of ERK (Cisbio HTRF pERK), ASPC1 cells. As to conditions: Homo sapiens, AsPC-1 cells; for IC50: ASPC1, 3 h, 3 hr compound incubation, Cisbio pERK HTRF; for inhibition at 0.1 µM: ASPC1, single point at 100 nM, 3 hrs compound incubation. Format: cell-based.
The target of the next assay is KRas G12A (Homo sapiens, UniProt P01116, G12A). The class given is binding. As to conditions: single point, 10 nM compound, read-out: Binding to KRas (% inhibition at 10 nM) G12A.
Chain of KRas G12A (P01116 1-169 isoform P01116-2 G12A): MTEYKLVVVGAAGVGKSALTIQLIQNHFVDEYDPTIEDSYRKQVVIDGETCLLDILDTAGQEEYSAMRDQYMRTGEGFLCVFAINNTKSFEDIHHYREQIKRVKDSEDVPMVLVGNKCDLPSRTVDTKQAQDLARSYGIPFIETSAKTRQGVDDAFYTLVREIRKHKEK
The next assay relates to PSN1 cells. The assay is described as follows: Inhibition of KRas-mediated phosphorylation of ERK (Cisbio HTRF pERK), PSN1 cells. The class given is cell-based. As to conditions: Homo sapiens, PSN1, 3 h, 3 hour compound incubation, Cisbio pERK HTRF. The gist of the method: (§1)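 Day 1: 6,000 cells/well plated, RPMI + 10% FBS.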
The next assay has as its target KRas WT (Homo sapiens, UniProt P01116). The assay is described as follows: KRas binding assay (TR-FRET displacement), KRas WT. As to conditions: single point, 10 nM compound.
The target in another assay is KRas G12D (Homo sapiens, UniProt P01116, G12D). The assay is described as follows: biochemical. As to conditions: Binding to KRas (IC50 nM) G12D, TR-FRET displacement, KRas G12D.
Chain of KRas G12D (P01116 1-169 isoform P01116-2 G12D): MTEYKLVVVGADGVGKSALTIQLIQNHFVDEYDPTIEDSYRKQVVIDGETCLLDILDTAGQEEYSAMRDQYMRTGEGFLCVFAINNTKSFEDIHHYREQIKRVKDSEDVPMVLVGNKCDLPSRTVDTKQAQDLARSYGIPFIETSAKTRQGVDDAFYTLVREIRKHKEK
Another assay concerns the target KRas Q61H (Homo sapiens, UniProt P01116, Q61H). The assay is described as follows: KRas binding assay (TR-FRET displacement), KRas Q61H. As to conditions: single point, 10 nM compound.
For a further assay, the target named is KRas G12S (Homo sapiens, UniProt P01116, G12S). Format: binding. As to conditions: single point, 10 nM compound, read-out: Binding to KRas (% inhibition at 10 nM) G12S.
Chain of KRas G12S (P01116 1-169 isoform P01116-2 G12S): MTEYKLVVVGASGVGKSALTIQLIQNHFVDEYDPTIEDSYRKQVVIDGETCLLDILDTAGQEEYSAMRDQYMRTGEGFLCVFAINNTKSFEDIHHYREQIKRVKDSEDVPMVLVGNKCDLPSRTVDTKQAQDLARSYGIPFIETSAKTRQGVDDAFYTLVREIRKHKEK
For a further assay, the system named is A549 cells. The assay is described as follows: Inhibition of KRas-mediated phosphorylation of ERK (Cisbio HTRF pERK), A549 cells. The class given is cell-based. As to conditions: Homo sapiens; for inhibition at 0.1 µM: single point at 100 nM, 3 hrs compound incubation.
The next assay relates to MKN1 cells. The assay is described as follows: Inhibition of KRas-mediated phosphorylation of ERK (Cisbio HTRF pERK), MKN1 cells. The class given is cell-based. As to conditions: Homo sapiens, MKN-1, 3 hour compound incubation, Cisbio pERK HTRF. In a few lines:
as §1

The target in another assay is KRas G13D (Homo sapiens, UniProt P01116, G13D). Format: binding. As to conditions: single point, 10 nM compound, read-out: Binding to KRas (% inhibition at 10 nM) G13D.
Chain of KRas G13D (P01116 1-169 isoform P01116-2 G13D): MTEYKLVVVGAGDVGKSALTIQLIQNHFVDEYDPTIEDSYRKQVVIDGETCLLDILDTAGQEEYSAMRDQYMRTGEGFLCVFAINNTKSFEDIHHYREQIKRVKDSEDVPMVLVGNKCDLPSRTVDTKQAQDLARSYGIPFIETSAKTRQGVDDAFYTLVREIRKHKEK
A further assay deals with KRas G12C (Homo sapiens, UniProt P01116, G12C). Format: binding. As to conditions: single point, 10 nM compound, read-out: Binding to KRas (% inhibition at 10 nM) G12C.
Chain of KRas G12C (P01116 1-169 isoform P01116-2 G12C): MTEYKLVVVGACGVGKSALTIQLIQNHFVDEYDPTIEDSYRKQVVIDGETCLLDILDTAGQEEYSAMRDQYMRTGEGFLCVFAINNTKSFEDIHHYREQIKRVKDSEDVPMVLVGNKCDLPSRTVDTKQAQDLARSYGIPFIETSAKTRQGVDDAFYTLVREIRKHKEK
The test system of the next assay is HCT116 cells. The assay is described as follows: Inhibition of KRas-mediated phosphorylation of ERK (Cisbio HTRF pERK), HCT116 cells. Format: cell-based. As to conditions: Homo sapiens; for inhibition at 0.1 µM: HCT-116, single point at 100 nM, 3 hrs compound incubation.
Another assay deals with H358 cells. The assay is described as follows: Inhibition of KRas-mediated phosphorylation of ERK (Cisbio HTRF pERK), H358 cells. As to conditions: Homo sapiens; for inhibition at 0.1 µM: NCI-H358, single point at 100 nM, 3 hrs compound incubation. Format: cell-based.
The subject of the next assay is H460 cells. The assay is described as follows: Inhibition of KRas-mediated phosphorylation of ERK (Cisbio HTRF pERK), H460 cells. As to conditions: Homo sapiens; for inhibition at 0.1 µM: NCI-H460, single point at 100 nM, 3 hrs compound incubation. The class given is cell-based.

Chain of KRas G12V (P01116 1-169 isoform P01116-2 G12V): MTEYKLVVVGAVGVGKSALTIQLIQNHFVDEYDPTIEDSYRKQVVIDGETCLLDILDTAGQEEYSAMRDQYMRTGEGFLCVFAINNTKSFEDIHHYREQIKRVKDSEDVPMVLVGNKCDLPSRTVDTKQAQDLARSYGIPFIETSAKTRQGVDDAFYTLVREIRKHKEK
Chain of KRas Q61H (P01116 1-169 isoform P01116-2 Q61H): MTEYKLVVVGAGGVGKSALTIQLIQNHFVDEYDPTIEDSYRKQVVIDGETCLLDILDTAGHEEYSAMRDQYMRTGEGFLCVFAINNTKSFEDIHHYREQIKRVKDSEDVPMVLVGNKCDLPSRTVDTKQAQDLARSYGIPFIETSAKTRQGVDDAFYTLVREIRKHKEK
Chain of KRas WT (P01116 1-169 isoform P01116-2): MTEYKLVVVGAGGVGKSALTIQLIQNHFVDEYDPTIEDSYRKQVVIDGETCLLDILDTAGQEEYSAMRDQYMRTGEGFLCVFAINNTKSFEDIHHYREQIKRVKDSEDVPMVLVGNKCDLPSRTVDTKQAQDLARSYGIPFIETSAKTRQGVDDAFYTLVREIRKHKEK

Turning to `CCc1c(F)ccc2cc(O)cc(N3CCc4c(nc(OC[C@@]56CCCN5C[C@H](F)C6)nc4N4CCCn5nc(C(=O)N6C7CCC6CNC7)cc5C4)C3)c12` [Example 258, 3,8-diazabicyclo[3.2.1]octan-8-yl(5-(7-(8-ethyl-7-fluoro-3-hydroxynaphthalen-1-yl)-2-(((2R,7aS)-2-fluorohexahydro-1H-pyrrolizin-7a-yl)methoxy)-5,6,7,8-tetrahydropyrido[3,4-d]pyrimidin-4-yl)-5,6,7,8-tetrahydro-4H-pyrazolo[1,5-a][1,4]diazepin-2-yl)methanone], the IC50 on KRas G12V was less than 2 nM; at KRas G12R, less than 2 nM; with H727 cells, 24 nM; with ASPC1 cells, 29 nM; in the assay on PSN1 cells it was 8640 nM; at KRas G12D it was less than 2 nM. In the assay with MKN1 cells, this molecule displayed a half-inhibitory concentration (IC50) of 5.4 nM. For the same molecule, the inhibition at 0.1 µM in the assay with H727 cells is 55%; in the assay on ASPC1 cells, 79%; with A549 cells, 42%; with HCT116 cells, 3%; with H358 cells, 95%; with H460 cells, 24%. The inhibition at 0.01 µM on KRas G12A was found to be 98%; at KRas WT, 97%; at KRas Q61H, 97%; on KRas G12S, 99%; at KRas G13D, 98%; at KRas G12C it was 100%.

For `CCc1c(F)ccc2cc(O)cc(N3CCc4c(nc(OC[C@@]56CCCN5C[C@H](F)C6)nc4N4CCCn5nc(C(=O)N6CCN7CCC6C7)cc5C4)C3)c12` (stereo partly drawn) [Example 259, (1,4-diazabicyclo[3.2.1]octan-4-yl)(5-(7-(8-ethyl-7-fluoro-3-hydroxynaphthalen-1-yl)-2-(((2R,7aS)-2-fluorotetrahydro-1H-pyrrolizin-7a(5H)-yl)methoxy)-5,6,7,8-tetrahydropyrido[3,4-d]pyrimidin-4-yl)-5,6,7,8-tetrahydro-4H-pyrazolo[1,5-a][1,4]diazepin-2-yl)methanone], the IC50 at KRas G12V was less than 2 nM; on KRas G12R, less than 2 nM; with H727 cells it was 287 nM; in the assay on ASPC1 cells, 32 nM; in the assay on PSN1 cells, 3940 nM; on KRas G12D, less than 2 nM. Further, in the assay with MKN1 cells, 3.3 nM corresponded to half-maximal inhibition (IC50). Moreover, the inhibition at 0.1 µM with H727 cells is 29%; in the assay on ASPC1 cells it was 79%; with A549 cells it was 6%; in the assay with HCT116 cells, -11%; in the assay on H358 cells, 66%; in the assay with H460 cells, 14%. For the same molecule, the inhibition at 0.01 µM at KRas G12A was found to be 94%; at KRas WT it was 94%; at KRas Q61H it was 96%; on KRas G12S it was 98%; on KRas G13D, 96%; on KRas G12C, 97%.

`CCc1c(F)ccc2cc(O)cc(N3CCc4c(nc(OC[C@@]56CCCN5C[C@H](F)C6)nc4N4CCCn5nc(C(=O)N6CC7CCC6CN7C)cc5C4)C3)c12` (stereo partly drawn) [Example 260, (5-(7-(8-ethyl-7-fluoro-3-hydroxynaphthalen-1-yl)-2-(((2R,7aS)-2-fluorohexahydro-1H-pyrrolizin-7a-yl)methoxy)-5,6,7,8-tetrahydropyrido[3,4-d]pyrimidin-4-yl)-5,6,7,8-tetrahydro-4H-pyrazolo[1,5-a][1,4]diazepin-2-yl)(5-methyl-2,5-diazabicyclo[2.2.2]octan-2-yl)methanone]: the concentration for half-maximal inhibition (IC50) was less than 2 nM at KRas G12V; less than 2 nM on KRas G12R; 8 nM in the assay with H727 cells; 2 nM with ASPC1 cells; greater than 10000 nM with PSN1 cells; less than 2 nM at KRas G12D. In addition, the IC50 with A549 cells (A549, 3 h, 3 hr compound incubation, Cisbio pERK HTRF) is 53 nM; in the assay with MKN1 cells, 29.2 nM; in the assay with HCT116 cells (HCT-116, 3 h, 3 hr compound incubation, Cisbio pERK HTRF) it was 151 nM; in the assay with H358 cells (NCI-H358, 3 h, 3 hr compound incubation, Cisbio pERK HTRF), 17 nM; with H460 cells (NCI-H460, 3 h, 3 hr compound incubation, Cisbio pERK HTRF), 102 nM. In addition, the inhibition at 0.1 µM in the assay with H727 cells was 54%; with ASPC1 cells, 98%; in the assay with A549 cells, 73%; with HCT116 cells it was 29%; with H358 cells, 97%; in the assay with H460 cells, 38%. Also, the inhibition at 0.01 µM at KRas G12A is 97%; at KRas WT, 98%; on KRas Q61H, 98%; at KRas G12S, 99%; at KRas G13D it was 98%; on KRas G12C it was 99%.

For `CCc1c(F)ccc2cc(O)cc(N3CCc4c(nc(OC[C@@]56CCCN5C[C@H](F)C6)nc4N4CCCn5nc(C(=O)N6CC7CC6CN7C)cc5C4)C3)c12` (stereo partly drawn) [Example 261, (5-(7-(8-ethyl-7-fluoro-3-hydroxynaphthalen-1-yl)-2-(((2R,7aS)-2-fluorohexahydro-1H-pyrrolizin-7a-yl)methoxy)-5,6,7,8-tetrahydropyrido[3,4-d]pyrimidin-4-yl)-5,6,7,8-tetrahydro-4H-pyrazolo[1,5-a][1,4]diazepin-2-yl)(5-methyl-2,5-diazabicyclo[2.2.1]heptan-2-yl)methanone], the IC50 at KRas G12V was less than 2 nM; on KRas G12R, less than 2 nM; with H727 cells, 63 nM; in the assay on ASPC1 cells, 23 nM; with PSN1 cells, greater than 10000 nM; on KRas G12D, less than 2 nM. The IC50 with MKN1 cells came out at 57.4 nM. Further, the inhibition at 0.1 µM was determined as 29% in the assay on H727 cells; 89% in the assay with ASPC1 cells; 40% in the assay with A549 cells; 15% with HCT116 cells; 88% in the assay on H358 cells; 37% in the assay with H460 cells. The inhibition at 0.01 µM amounted to 98% on KRas G12A; 97% at KRas WT; 96% on KRas Q61H; 99% on KRas G12S; 97% on KRas G13D; 99% on KRas G12C.

`CCc1c(F)ccc2cc(O)cc(N3CCc4c(nc(OC[C@@]56CCCN5C[C@H](F)C6)nc4N4CCCn5nc(C(=O)N6CC7CC(C6)N7C)cc5C4)C3)c12` [Example 262]: the IC50 at KRas G12V was less than 2 nM; on KRas G12R, less than 2 nM; in the assay on H727 cells, 78 nM; in the assay with ASPC1 cells, 14 nM; in the assay with PSN1 cells it was greater than 10000 nM; on KRas G12D, less than 2 nM. Further, half-maximal inhibition in the assay on MKN1 cells (IC50) was put at 56 nM. For the same molecule, the inhibition at 0.1 µM came to 38% with H727 cells; 94% with ASPC1 cells; 47% with A549 cells; 16% in the assay with HCT116 cells; 91% in the assay with H358 cells; 21% in the assay on H460 cells. Further, the inhibition at 0.01 µM on KRas G12A amounted to 95%; at KRas WT, 95%; at KRas Q61H it was 96%; at KRas G12S, 98%; at KRas G13D, 97%; at KRas G12C, 99%.
